Results on eleven compounds are retold here after PubChem BioAssay (NCI).

The structures appear in SMILES notation.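 How tested: cells in 96-well plates exposed to compound for 48 hours at five concentrations. GI50 = concentration required for 50% inhibition of growth. Definition used: TGI = concentration required for complete inhibition of growth.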

Some test systems named below: A549 NSCLC; DMS 114 small cell lung; M14 melanoma; OVCAR-5 ovarian; RXF 393 renal; SF-295 CNS; SNB-78 CNS; SW-620 colon; U251 CNS; EKVX NSCLC.
Experiment in all cases: growth of human tumour cells (NCI), 48 h

For `COC(=O)CC(=O)OC1C[C@@H]2CCC3C(C)(C)CCC[C@]3(C)C23CC[C@@]1(C)C3` (stereo partly specified), the TGI with A549 NSCLC is 65.1 µM; in the assay with DMS 114 small cell lung, 37.9 µM; in the assay on M14 melanoma, 33.7 µM; in the assay with OVCAR-5 ovarian, 29.6 µM; with RXF 393 renal it was 37.2 µM; in the assay on SF-295 CNS it was 34.5 µM. In addition, the results for the TGI in the assay with SNB-78 CNS, in the assay on SW-620 colon and in the assay with U251 CNS were 42.5 µM, 32.1 µM and 31.2 µM, respectively.
Regarding `COc1ccc2c(Cl)cc(NC(=S)Nc3ccccc3)nc2c1`, the TGI in the assay on A549 NSCLC is more than 100 µM; in the assay with EKVX NSCLC, 63.1 µM; in the assay on M14 melanoma, 36.6 µM; with OVCAR-5 ovarian it was 99.6 µM; in the assay on RXF 393 renal, 55.6 µM; with SF-295 CNS, more than 100 µM. In addition, the TGI amounted to 69.1 µM in the assay with SW-620 colon and 36.4 µM with U251 CNS.
`CC/C(=C/c1ccc(OC)cc1)[N+](=O)[O-]`: the GI50 was 6.07 µM in the assay on A549 NSCLC; 14.2 µM with EKVX NSCLC; 1.85 µM in the assay with M14 melanoma; 2.34 µM in the assay on OVCAR-5 ovarian; 1.85 µM with RXF 393 renal; 11.3 µM in the assay with SF-295 CNS. The GI50 in the assay with SW-620 colon is 1.93 µM; in the assay on U251 CNS, 3.18 µM. Further, the TGI in the assay on A549 NSCLC was determined as 19.6 µM; with EKVX NSCLC, 27.2 µM; in the assay with M14 melanoma, 4.18 µM; in the assay on OVCAR-5 ovarian, 6.08 µM; in the assay with RXF 393 renal it was 3.39 µM; in the assay on SF-295 CNS, 23.3 µM. Moreover, the TGI with SW-620 colon came to 3.85 µM; in the assay on U251 CNS it was 10.5 µM.
On to `O=C1c2ccccc2C(=O)c2c1ccc1c3ccccc3n(-c3ccccc3)c21`, for which the TGI with A549 NSCLC was 58.1 µM; in the assay with EKVX NSCLC, 56 µM; in the assay with M14 melanoma, 29.8 µM; with OVCAR-5 ovarian it was 47 µM; in the assay on RXF 393 renal, 34.2 µM; with SF-295 CNS, 37.2 µM. The TGI in the assay with SNB-78 CNS is 49.3 µM; in the assay with SW-620 colon, 48 µM; in the assay on U251 CNS it was more than 100 µM.
Regarding `N#Cc1cnn(C(=O)c2nn(-c3ccc(Cl)cc3)cc2O)c1N`, the GI50 in the assay on A549 NSCLC is 0.201 µM; in the assay with EKVX NSCLC, 0.378 µM; in the assay on M14 melanoma, 0.462 µM; in the assay on OVCAR-5 ovarian it was 0.61 µM; with RXF 393 renal, 0.161 µM; in the assay on SF-295 CNS it was 0.163 µM. In addition, the GI50 in the assay with SW-620 colon is 0.521 µM; in the assay with U251 CNS, 0.284 µM. In addition, the TGI is 16.5 µM in the assay with A549 NSCLC; 10.4 µM in the assay with EKVX NSCLC; 8.01 µM with M14 melanoma; 21.6 µM with OVCAR-5 ovarian; 3.91 µM with RXF 393 renal; 0.646 µM with SF-295 CNS. Also, the figures for the TGI in the assay with SW-620 colon and in the assay with U251 CNS were 21 µM and 20.6 µM, respectively.
Turning to `Nc1ncc(CN2CCCC2)c(-c2ccccc2O)n1`, the TGI with A549 NSCLC, with DMS 114 small cell lung, in the assay with M14 melanoma, in the assay with OVCAR-5 ovarian, in the assay on RXF 393 renal and in the assay on SF-295 CNS was more than 750 µM each time. The TGI with SW-620 colon and in the assay on U251 CNS was more than 750 µM throughout.
In the case of `CCCCCn1sc(=O)n(Cc2ccc(CNC(=O)C(C)c3ccc(CC(C)C)cc3)cc2)c1=O` (stereo unspecified), the GI50 was 1.65 µM in the assay on A549 NSCLC; 1.41 µM with EKVX NSCLC; 0.631 µM with M14 melanoma; 1.56 µM with OVCAR-5 ovarian; 0.727 µM with RXF 393 renal; 1.74 µM with SF-295 CNS. Moreover, the GI50 was 0.37 µM in the assay on SW-620 colon and 1.56 µM with U251 CNS. Besides, the TGI in the assay on A549 NSCLC is 4.26 µM; in the assay with EKVX NSCLC, 2.82 µM; in the assay with M14 melanoma, 1.92 µM; in the assay on OVCAR-5 ovarian, 3.19 µM; with RXF 393 renal, 1.94 µM; in the assay on SF-295 CNS it was 3.92 µM. Moreover, the TGI in the assay with SW-620 colon is 1.46 µM; in the assay on U251 CNS it was 3.04 µM.
Regarding `Cc1cnc(C(=O)Nc2nc3ccc(S(=O)(=O)Nc4ccc(C(C)(C)C)cc4)cc3[nH]2)cn1`, the GI50 with A549 NSCLC is 0.652 µM; in the assay on EKVX NSCLC, 0.789 µM; in the assay with M14 melanoma, 0.384 µM; in the assay with OVCAR-5 ovarian it was 1.41 µM; with RXF 393 renal, 0.312 µM; in the assay with SF-295 CNS, 0.401 µM. In addition, the GI50 in the assay with SW-620 colon is 0.422 µM; in the assay with U251 CNS, 0.648 µM. Also, the TGI is 9.14 µM with A549 NSCLC; 14 µM in the assay on EKVX NSCLC; 4.43 µM with M14 melanoma; 10.7 µM in the assay with OVCAR-5 ovarian; 1.86 µM in the assay with RXF 393 renal; 4.21 µM with SF-295 CNS. Besides, the TGI in the assay on SW-620 colon turned out to be 13.9 µM; in the assay with U251 CNS, 9.99 µM.
`CNC(=O)c1sc(-n2cnc3cc(OC)c(OC)cc32)cc1OCc1ccccc1C(F)(F)F`: the GI50 with A549 NSCLC is more than 25 µM; in the assay on EKVX NSCLC, more than 25 µM; with M14 melanoma, more than 25 µM; in the assay with OVCAR-5 ovarian, more than 25 µM; in the assay on RXF 393 renal, more than 25 µM; in the assay with SF-295 CNS it was more than 21.4 µM. Also, the GI50 in the assay on SW-620 colon and in the assay with U251 CNS was more than 25 µM each time. In addition, the TGI in the assay on A549 NSCLC, in the assay with EKVX NSCLC, with M14 melanoma, in the assay with OVCAR-5 ovarian, in the assay with RXF 393 renal and in the assay on SF-295 CNS was more than 25 µM each time. Also, the TGI with SW-620 colon and in the assay with U251 CNS was more than 25 µM in each case.
Regarding `COc1ccc2c(c1O)[C@@]13CCCC=C1[C@@H](C2)N(C)CC3`, the TGI with A549 NSCLC, in the assay with EKVX NSCLC, in the assay on M14 melanoma, in the assay on OVCAR-5 ovarian, in the assay on RXF 393 renal and in the assay on SF-295 CNS was more than 100 µM throughout. Further, the TGI in the assay on SW-620 colon and with U251 CNS was more than 100 µM in each case.
For `CCN(CC)c1ccc(N=Nc2ccc(-c3nc4cccnc4s3)cc2)cc1`, the TGI in the assay on A549 NSCLC, with DMS 114 small cell lung, in the assay on EKVX NSCLC, in the assay on M14 melanoma, in the assay with OVCAR-5 ovarian and with SF-295 CNS was more than 100 µM throughout. The TGI in the assay on SNB-78 CNS, in the assay on SW-620 colon and with U251 CNS was more than 100 µM each time.
